Values joined by “and” are separate entries in the source; they are usually repeats but may differ in a detail not shown here. Identical values can stand only once. Counter-ions that a name gives are not always drawn. Like-named read-outs stand apart in the source and are kept apart here.
Columns and labels:
[1] = molecular target: T1, GluN1-4a(F484A)/eGFP-GluN3A receptor (Rattus norvegicus, UniProt P35439+Q9R1M7, F484A); assay: Whole-cell patch-clamp of glycine-activated GluN1-4a(F484A)/eGFP-GluN3A receptor responses in HEK293 cells; type: cell-based
T1 construct: eGFP; expressed in transfected cells; host or cells: HEK293
Source text: (§1) Human embryonic kidney (HEK293) cells were transfected with expression vectors containing: GluN1–1a (GenBank accession number U08261)[52]; GluN2B (GenBank accession number M91562); GluN1-4a(F484A), (generous gift from Dr. J. J. Woodward)[53] (Smothers & Woodward, 2009); GluN3A (generous gift from Dr. S. A. Lipton)[54] (GenBank accession number NM_138546); GluN1ΔN with deleted 354 amino acids in the NTD (32 to 386); GluN1ΔC with an introduced stop codon in 838 of the CTD GluN2BΔN) with deleted 354 amino acids in the NTD (32 to 386); GluN2BΔC with an introduced stop codon in 844 of the CTD[55]; GluR0 (GenBank accession number Synechocystis PCC 6803) (generous gift from Dr. M. L. Mayer)[18]; and green fluorescent protein (GFP) (pQBI 25, Takara, Tokyo, Japan) genes, as described previously. The Quick-Change site-directed mutagenesis kit (Agilent Technologies, Santa Clara, CA, USA) was used to generate specific point mutations in the M1/M3 region according to the manufacturer’s instructions using manually designed primers purchased from Sigma. Modified DNA plasmids were transformed into competent XL10-Gold E.coli cells, positive clones were selected, and isolated DNA was sequenced. […]
(§2) The IC50 was determined from a single dose of a steroid using the formula [drawing 1] where I is the relative degree of inhibition and [steroid] is the steroid concentration used. […]

[2] = test system: non-transfected HEK293 cells; assay: Membrane capacitance measurement of steroid association with and exit from the membrane; type: cell-based, Human
Source text: Membrane capacitance was estimated by examining the integrated capacitive current (sampled at 30 kHz at 10 kHz filter cutoff frequency) evoked by depolarizing or hyperpolarizing voltage pulses from −60 mV to +30 mV for 3 ms delivered at 200 Hz.

GluN1ΔC/GluN2BΔC = molecular target: T2, GluN1ΔC/GluN2BΔC (Rattus norvegicus, UniProt P35439+Q00960); assay: Whole-cell patch-clamp of C-terminal truncated NMDARs in HEK293 cells; type: cell-based
T2 construct: expressed in transfected cells; host or cells: HEK293
Source text: as §1, §2

[3] = Light scattering analysis of particle size in ECS; type: physicochemical
Description: Light scattering (Zetasizer Nano ZS, Malvern Instruments, United Kingdom) was used to characterize particle size of PA-S in ECS. PA-S was dissolved in DMSO at a concentration of 20 mM and then in the ECS at a final concentration of 5 nM to 150 μM PA-S. This solution was sonicated (Ultrasonic Sonorex Super RK 103 H, Bandelin electronic GmbH & Co. KG, Germany) for 1 min. Light scattering analysis was repeated six times for each sample at 25 °C.

[4] = molecular target: T3, GluN1(T648A)/GluN2B receptors (Rattus norvegicus, UniProt P35439+Q00960, T648A); assay: Whole-cell patch-clamp of GluN1(T648A)/GluN2B receptor responses in HEK293 cells; type: cell-based; conditions: for inhibition at 200 µM: HEK293, PA-S 200 μM
T3 construct: expressed in transfected cells; host or cells: HEK293
Source text: Human embryonic kidney (HEK293) cells were transfected with expression vectors containing: GluN1–1a (GenBank accession number U08261)[52]; GluN2B (GenBank accession number M91562); GluN1-4a(F484A), (generous gift from Dr. J. J. Woodward)[53] (Smothers & Woodward, 2009); GluN3A (generous gift from Dr. S. A. Lipton)[54] (GenBank accession number NM_138546); GluN1ΔN with deleted 354 amino acids in the NTD (32 to 386); GluN1ΔC with an introduced stop codon in 838 of the CTD GluN2BΔN) with deleted 354 amino acids in the NTD (32 to 386); GluN2BΔC with an introduced stop codon in 844 of the CTD[55]; GluR0 (GenBank accession number Synechocystis PCC 6803) (generous gift from Dr. M. L. Mayer)[18]; and green fluorescent protein (GFP) (pQBI 25, Takara, Tokyo, Japan) genes, as described previously. The Quick-Change site-directed mutagenesis kit (Agilent Technologies, Santa Clara, CA, USA) was used to generate specific point mutations in the M1/M3 region according to the manufacturer’s instructions using manually designed primers purchased from Sigma. Modified DNA plasmids were transformed into competent XL10-Gold E.coli cells, positive clones were selected, and isolated DNA was sequenced. […] All mutations were verified by DNA sequencing (Macrogen, Seoul, Korea or SeQme, Dobris, Czech Republic). The amino acids are numbered according to the full-length protein, including the signal peptide, with the initiating methionine as 1.
Experiments were performed 24–48 hrs after transfection on cells transfected with GluN1/GluN2B/GFP plasmids. Whole-cell voltage-clamp recordings from HEK293 cells were made with a patch-clamp amplifier (Axopatch 200B; Axon Instruments, Inc., Foster City, CA) after a capacitance and series resistance (<10 MΩ) compensation of 80–90%.
Patch pipettes (3–5 MΩ) were filled with a solution containing (in mM): 120 gluconic acid, 15 CsCl, 10 BAPTA, 10 HEPES, 3 MgCl2, 1 CaCl2, and 2 ATP-Mg salt (pH-adjusted to 7.2 with CsOH). When GluR0 receptor responses were studied, intracellular solution contained (in mM): 120 gluconic acid, 15 KCl, 10 BAPTA, 10 HEPES, 3 MgCl2, 1 CaCl2, and 2 ATP-Mg salt (pH-adjusted to 7.2 with KOH). Extracellular solution (ECS) contained the following (in mM): 160 NaCl, 2.5 KCl, 10 HEPES, 10 glucose, 0.2 EDTA, and 0.7 CaCl2 (pH-adjusted to 7.3 with NaOH). Glycine (10 μM), an NMDAR co-agonist, was present in the control and test solutions. All (PA-S and PA-A) solutions were made from freshly prepared 20 mM PA-S and 5 mM PA-A stock in dimethyl sulfoxide (DMSO). The final dilution to ECS was made at 50 °C and followed by 1 min sonication (SONOREX DIGITEC DT 100/H, BADELIN electronic, Berlin, Germany). The same concentration of DMSO was added to all extracellular solutions. Drug applications were made with a microprocessor-controlled multibarrel fast-perfusion system. Changes in the glutamate-induced current in HEK293 cells transfected by GluN1/GluN2B subunits were used to estimate the rate of solution exchange around the cell. Standard ECS was switched to the ECS diluted by water (50%) during glutamate application. The osmolarity was adjusted by sucrose to match the standard ECS. Glutamate (1 mM), glycine (10 μM) and pH was maintained constant in both solutions. The solution exchange rate was estimated to be τ = 4.3 ± 0.3 ms (n = 6) for lifted cells and τ = 12.0 ± 0.9 ms (n = 6) for the attached cells.
The IC50 was determined from a single dose of a steroid using the formula [drawing 1] where I is the relative degree of inhibition and [steroid] is the steroid concentration used. Calculations of IC50 were made assuming 100% inhibition at saturating steroid concentration this is valid for both PA-S and PA-A[12][13]. […]

T1 sequence (Q9R1M7 24-1135, other chains not shown): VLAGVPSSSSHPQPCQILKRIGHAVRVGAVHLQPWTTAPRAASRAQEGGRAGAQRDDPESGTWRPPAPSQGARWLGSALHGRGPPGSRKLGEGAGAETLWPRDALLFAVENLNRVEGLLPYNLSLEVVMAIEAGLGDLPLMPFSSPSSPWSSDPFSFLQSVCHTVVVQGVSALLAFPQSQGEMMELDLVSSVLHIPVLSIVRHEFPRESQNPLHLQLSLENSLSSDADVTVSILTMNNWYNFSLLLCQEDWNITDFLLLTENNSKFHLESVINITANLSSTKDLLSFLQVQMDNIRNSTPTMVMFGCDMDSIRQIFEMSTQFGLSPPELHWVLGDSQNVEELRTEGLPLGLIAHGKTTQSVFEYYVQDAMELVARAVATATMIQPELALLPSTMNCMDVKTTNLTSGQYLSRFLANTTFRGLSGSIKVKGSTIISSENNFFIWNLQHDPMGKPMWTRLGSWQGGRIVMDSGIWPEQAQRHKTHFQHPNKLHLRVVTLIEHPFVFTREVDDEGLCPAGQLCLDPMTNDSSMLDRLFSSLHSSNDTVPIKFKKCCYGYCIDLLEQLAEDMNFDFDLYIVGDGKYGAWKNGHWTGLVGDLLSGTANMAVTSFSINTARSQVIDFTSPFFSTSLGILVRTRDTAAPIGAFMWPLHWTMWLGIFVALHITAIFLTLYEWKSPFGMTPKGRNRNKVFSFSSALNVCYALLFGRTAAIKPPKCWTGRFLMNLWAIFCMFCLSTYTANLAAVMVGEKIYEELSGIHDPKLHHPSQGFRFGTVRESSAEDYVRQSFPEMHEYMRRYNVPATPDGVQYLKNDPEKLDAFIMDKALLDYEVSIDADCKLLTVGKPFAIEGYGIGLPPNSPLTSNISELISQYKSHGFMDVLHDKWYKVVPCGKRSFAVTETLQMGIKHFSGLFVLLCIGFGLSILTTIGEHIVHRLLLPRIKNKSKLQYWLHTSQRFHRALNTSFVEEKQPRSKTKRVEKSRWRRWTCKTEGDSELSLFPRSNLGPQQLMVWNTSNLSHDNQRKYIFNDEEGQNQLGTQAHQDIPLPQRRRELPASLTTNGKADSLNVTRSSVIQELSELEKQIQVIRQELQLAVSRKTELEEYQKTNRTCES

CC(=O)[C@H]1CC[C@H]2[C@@H]3CC[C@@H]4C[C@H](OS(=O)(=O)O)CC[C@]4(C)[C@H]3CC[C@]12C [PA-S, 20-oxo-5β-pregnan-3α-yl sulfate]
degree of PA-S inhibition, mutated vs WT GluN1-4a subunit in combination with GluN3A [1]: no significant difference
IC50 ([1]; glycine-activated, PA-S 50 µM): 27 ± 3 µM
fast dissociation time constant from the membrane [2]: ≤ 1 ms
koff (rate of steroid dissociation from the membrane) [2]: ≥ 1000 s⁻¹
capacitance increase during the steroid application ([2]; PA-S 150 μM for 1 s, attached cells): ~ 3%
capacitance return after steroid washout As ([2]; PA-S 150 μM, attached cells): 41 ± 2%
capacitance return after steroid washout τf ([2]; PA-S 150 μM, attached cells): < 5 ms
capacitance return after steroid washout τs ([2]; PA-S 150 μM, attached cells): 222 ± 8 ms and 244 ms
capacitance change after PA-S washout τ ([2]; lifted cells, only fast component resolved): < 5 ms
IC50 (GluN1ΔC/GluN2BΔC): 34 ± 3 µM
PA-S concentration at which two particle sizes are present ([3]; ECS): > 300 nM
PA-S concentration at which two particle sizes were observed ([3]; ECS): ≥ 0.4 µM
small particle size (single steroid molecule) ([3]; ECS): ~ 2.5 nm
critical aggregate concentration (CAC) ([3]; ECS, 25 °C): ~ 300 nM and 300 nM
size of aggregates ([3]; ECS, concentrations relevant to effect at the NMDAR): ~ 400 nm
molecules present in the ECS in aggregates ([3]; at the PA-S concentration corresponding to its IC50 at NMDARs): 99.5%
IC50 [4]: 758 ± 27 µM
voltage dependence of steroid inhibition [4]: voltage independent
inhibition at 200 µM ([4]; read-out: degree of inhibition of agonist-evoked currents): 13.6 ± 0.9%
inhibition at 200 µM ([4]; read-out: degree of inhibition of spontaneous currents): 13.8 ± 0.7%
intercept of linear fit of mean inhibition versus holding potential ([4]; PA-S 200 µM, 1 mM glutamate): 15.8

Source: article PMC4471902, “Block of NMDA receptor channels by endogenous neurosteroids: implications for the agonist induced conformational states of the channel vestibule” (Scientific Reports, 2015)
